Values joined by “and” are separate entries in the source; they are usually repeats but may differ in a detail not shown here. Identical values can stand only once.
Assays:
5-HT1A receptor = conditions: cited from earlier work
[1] = target: T1, serotonin 5-HT1A receptor (Rattus norvegicus, UniProt P19327); assay: Affinity for the serotonin 5-HT1A receptor, displacement of [3H]8-OHDPAT (Hall et al.); type: binding; conditions: [3H]8-OHDPAT displacement; for IC50: read-out: Receptor Affinities 5-HT1A (IC50 (nM)); for inhibition at 0.1 µM: read-out: Receptor Affinities 5-HT1A (% @ ( ) μM)
T1 construct: following the procedure of Hall et al., J. Neurochem; 44, 1685 (1985); from tissue
T1 sequence (P19327 1-422): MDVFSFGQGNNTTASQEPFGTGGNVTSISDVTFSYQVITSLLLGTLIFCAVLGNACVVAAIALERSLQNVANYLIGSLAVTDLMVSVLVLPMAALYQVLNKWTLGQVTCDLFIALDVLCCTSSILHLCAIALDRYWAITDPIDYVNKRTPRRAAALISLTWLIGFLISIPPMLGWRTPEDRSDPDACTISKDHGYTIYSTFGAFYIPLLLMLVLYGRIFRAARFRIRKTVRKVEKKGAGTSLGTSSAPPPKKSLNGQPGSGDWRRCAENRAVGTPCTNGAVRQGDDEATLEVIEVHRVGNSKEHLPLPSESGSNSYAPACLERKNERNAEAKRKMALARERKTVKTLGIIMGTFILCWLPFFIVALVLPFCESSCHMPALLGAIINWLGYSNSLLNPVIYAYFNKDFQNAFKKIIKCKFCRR
From the text: Affinity for the serotonin 5-HT1A receptor was established by testing the claimed compound's ability to displace [^3 H]8-OHDPAT (dipropylaminotetralin) from the 5-HT1A serotonin receptor following the procedure of Hall et al., J. Neurochem. 44, 1685 (1985). […] The anxiolytic activity of buspirone is believed to be, at least partially, due to its 5-HT1A receptor affinity (Vander Maclen et al., Eur. J. Pharmacol. 1986, 129 (1-2) 133-[…]).

mouse locomotor activity = assay: Reduction of mouse locomotor activity (hypolocomotion; Martin and Bendensky); type: in vivo, mouse (male, CF-1); conditions: horizontal activity counts 10 to 20 minutes after dosing; for ED50: Mus musculus, ip, 20 min
Protocol: The antipsychotic activity of the compounds of the invention was further established by a determination of the compounds' ability to reduce mouse locomotor activity according to the method of Martin and Bendensky, J. Pharmacol. Exp. Therap. 229: 706-711, 1984, in which mice (male, CF-1, Charles River, 20-30 g) were injected with vehicle or various doses of each drug and locomotor activity was measured for 30 minutes using automated infrared activity monitors (Omnitech-8×8 inch open field) located in a darkened room. ED50's were calculated from the horizontal activity counts collected from 10 to 20 minutes after dosing using a nonlinear regression analysis with inverse prediction.

dopamine D2 receptor = target: T2, dopamine D2 receptor (Rattus norvegicus, UniProt P61169); assay: Affinity for the dopamine D2 receptor, 3H-spiroperidol binding in homogenized limbic brain tissue; conditions: for IC50: read-out: Receptor Affinities D2 (IC50 (nM)); for inhibition at 1 µM: read-out: Receptor Affinities D2 (% @ ( ) μM)
T2 construct: from tissue; host or cells: homogenized limbic brain tissue
T2 sequence (P61169 whole entry): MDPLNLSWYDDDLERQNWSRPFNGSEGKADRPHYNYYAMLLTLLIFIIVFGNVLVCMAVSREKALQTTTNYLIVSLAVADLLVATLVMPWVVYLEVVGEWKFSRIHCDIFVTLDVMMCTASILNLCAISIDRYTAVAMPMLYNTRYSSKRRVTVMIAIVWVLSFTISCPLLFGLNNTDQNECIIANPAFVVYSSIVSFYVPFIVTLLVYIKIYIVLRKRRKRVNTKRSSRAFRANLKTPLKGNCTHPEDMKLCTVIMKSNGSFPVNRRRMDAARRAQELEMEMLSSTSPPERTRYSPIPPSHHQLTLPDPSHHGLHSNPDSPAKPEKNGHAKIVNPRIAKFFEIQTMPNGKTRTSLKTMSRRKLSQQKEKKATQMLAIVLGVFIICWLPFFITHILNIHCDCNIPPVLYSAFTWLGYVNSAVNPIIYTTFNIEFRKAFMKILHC
Protocol: Affinity for the dopamine D2 receptor was established by the standard experimental test procedure of Fields, et al., Brain Res., 136, 578 (1977) and Yamamura et al., eds., Neurotransmitter Receptor Binding, Raven Press, New York (1978) wherein homogenized limbic brain tissue is incubated with ^3 H-spiroperidol and various concentrations of test compound, filtered and washed and shaken with Hydrofluor scintillation cocktail (National Diagnostics) and counted in a Packard 460 CD scintillation counter.

[2] = system: dopamine synthesis (dopa accumulation; dopamine autoreceptor); assay: Inhibition of dopa accumulation in GBL-treated rats (method of Walters and Roth); type: in vivo, rat (male, Sprague-Dawley); conditions: rat; for Dopa Accumulation (% inhib. @ 10 mg/kg, sc), limbic (L): limbic (L) brain tissue; for Dopa Accumulation (% inhib. @ 10 mg/kg, sc), striatal (S): striatal (S) brain tissue; for Dopa Accumulation (% inhib. @ 10 mg/kg, sc), tissue not indicated: (L)/(S) mark not given
Protocol: The effect of the compounds of the invention on the synthesis of dopamine was established by the method of Walters and Roth, Naunyn-Schmiedeberg's Arch. Pharmacol. 296:5-14, 1976, in which rats (male, Sprague-Dawley, Charles River, 200-350 g) were administered vehicle or test drug ten minutes prior to the administration of gamma butyrolactone (GBL; 750 mg/kg, ip to inhibit dopaminergic impulse flow) and 20 minutes prior to NSD-1015 (100 mg/kg, ip to prevent the conversion of dopa to dopamine). Thirty minutes after NSD-1015 all rats were humanely euthenized and the nucleus accumbens and the straitum were removed for analysis. Following perchloric acid extraction of the tissue, the extracts were placed over alumina columns to collect and concentrate dopa and other catechols. This eluate was then subjected to HPLC analysis using electrochemical detection to quantify the levels of dopa present. Dopamine autoreceptor agonists, under the conditions used above, inhibit dopa accumulation.

O=C1CC2(CCCC2)CC(=O)N1CCCCNCC1COc2ccccc2O1 (single isomer, unassigned; (-)) [(-)-MDL 72832]
binding at the 5-HT1A receptor site relative to the dextrorotary isomer (5-HT1A receptor; (-)-isomer vs dextrorotary isomer, Fozard et al. 1987): 32 times

O=c1ccc2ccc(OCCCNCC3COc4ccccc4O3)cc2o1 (stereo not drawn) [Example 1, 7-[3-[[(2,3-Dihydro-1,4-benzodioxin-2-yl)methyl]amino]propoxy]-2H-1-benzopyran-2-one]
IC50 [1]: 0.5 nM | ED50 (mouse locomotor activity): 0.58 mg/kg | IC50 (dopamine D2 receptor): 112 nM | Dopa Accumulation (% inhib. @ 10 mg/kg, sc), limbic (L) [2]: 39% | Dopa Accumulation (% inhib. @ 10 mg/kg, sc), striatal (S) [2]: 1%

COc1cccc2c1OCC(CNCCCOc1ccc3ccc(=O)oc3c1)O2 (stereo not drawn) [Example 2, 7-[3-[[(2,3-Dihydro-5-methoxy-1,4-benzodioxin-2-yl)methyl]amino]propoxy]-2H-1-benzopyran-2-one]
Dopa Accumulation (% inhib. @ 10 mg/kg, sc), limbic (L) [2]: -12%

O=c1ccc2ccc(OCCCNCC3COc4cc(OCc5ccccc5)ccc4O3)cc2o1 (stereo not drawn) [Example 4, 7-[3-[[(2,3-Dihydro-6-phenylmethoxy-1,4-benzodioxin-2-yl)methyl]amino]propoxy]-2H-1-benzopyran-2-one]
Dopa Accumulation (% inhib. @ 10 mg/kg, sc), limbic (L) [2]: 20%

O=c1ccc2ccc(OCCCNCC3COc4cc(O)ccc4O3)cc2o1 (stereo not drawn) [Example 5, 7-[3-[[(2,3-Dihydro-6-hydroxy-1,4-benzodioxin-2-yl)methyl]amino]propoxy]-2H-1-benzopyran-2-one]
IC50 [1]: 112 nM | ED50 (mouse locomotor activity): 1.62 mg/kg | Hypolocomotion (ED50 mg/kg, ip) (mouse locomotor activity): 2.04 mg/kg | IC50 (dopamine D2 receptor): 337 nM and 730 nM | Dopa Accumulation (% inhib. @ 10 mg/kg, sc), limbic (L) [2]: 60% | Dopa Accumulation (% inhib. @ 10 mg/kg, sc), striatal (S) [2]: 18%

O=c1ccc2ccc(OCCCNCC3COc4ccc(O)cc4O3)cc2o1 (stereo not drawn) [Example 6, 7-[3-[[(2,3-Dihydro-7-hydroxy-1,4-benzodioxin-2-yl)methyl]amino]propoxy]-2H-1-benzopyran-2-one]
IC50 [1]: 6 nM | ED50 (mouse locomotor activity): 0.19 mg/kg | inhibition at 1 µM (dopamine D2 receptor): 100% | Dopa Accumulation (% inhib. @ 10 mg/kg, sc), limbic (L) [2]: 76% | Dopa Accumulation (% inhib. @ 10 mg/kg, sc), striatal (S) [2]: 73%

O=c1ccc2c(OCCCNCC3COc4ccccc4O3)cccc2[nH]1 (stereo not drawn) [Example 7, 5-[3-[[(2,3-Dihydro-1,4-benzodioxin-2-yl)methyl]amino]propoxy]-2(1H)-quinolinone]
Dopa Accumulation (% inhib. @ 10 mg/kg, sc), limbic (L) [2]: 1.5% | Dopa Accumulation (% inhib. @ 10 mg/kg, sc), striatal (S) [2]: 51.3%

O=c1ccc2ccc(OCCCNC[C@H]3COc4cc(O)ccc4O3)cc2o1 [Example 8, (S)-7-[3-[[(2,3-Dihydro-6-hydroxy-1,4-benzodioxin-2-yl)methyl]amino]propoxy]-2H-1-benzopyran-2-one]
IC50 [1]: 104 nM | ED50 (mouse locomotor activity): 3.5 mg/kg | Dopa Accumulation (% inhib. @ 10 mg/kg, sc), limbic (L) [2]: 50%

COc1ccc2c(c1)OC(CNCCCOc1ccc3ccc(=O)oc3c1)CO2 (stereo not drawn) [Example 9, 7-[3-[[(2,3-Dihydro-7-methoxy-1,4-benzodioxin-2-yl)methyl]amino]propoxy]-2H-1-benzopyran-2-one]
inhibition at 1 µM (dopamine D2 receptor): 66% | Dopa Accumulation (% inhib. @ 10 mg/kg, sc), limbic (L) [2]: 21.7%

O=c1ccc2ccc(OCCCNC[C@@H]3COc4cc(O)ccc4O3)cc2o1 [Example 10, (R)-7-[3-[[(2,3-Dihydro-6-hydroxy-1,4-benzodioxin-2-yl)methyl]amino]propoxy]-2H-1-benzopyran-2-one]
Dopa Accumulation (% inhib. @ 10 mg/kg, sc), tissue not indicated [2]: 24.0%

CC(=O)Oc1ccc2c(c1)OCC(CNCCCOc1ccc3ccc(=O)oc3c1)O2 (stereo not drawn) [Example 11, 7-[3-[[(2,3-Dihydro-6-acetoxy-1,4-benzodioxin-2-yl)methyl]amino]propoxy]-2H-1-benzopyran-2-one]
inhibition at 0.1 µM [1]: 78% | Dopa Accumulation (% inhib. @ 10 mg/kg, sc), limbic (L) [2]: 37.7%

CCN(CCCOc1ccc2ccc(=O)oc2c1)CC1COc2ccc(O)cc2O1 (stereo not drawn) [Example 12, 7-[3-[[(2,3-Dihydro-7-hydroxy-1,4-benzodioxin-2-yl)methyl]ethylamino]propoxy]-2H-1-benzopyran-2-one]
inhibition at 0.1 µM [1]: 81% | ED50 (mouse locomotor activity): 1.6 mg/kg | Dopa Accumulation (% inhib. @ 10 mg/kg, sc), limbic (L) [2]: 61.6%

COc1ccc2c(c1)OC(CN(C)CCCOc1ccc3ccc(=O)oc3c1)CO2 (stereo not drawn) [Example 14]
Dopa Accumulation (% inhib. @ 10 mg/kg, sc), tissue not indicated [2]: 19.5%

CN(CCCOc1ccc2ccc(=O)oc2c1)CC1COc2cc(O)ccc2O1 (stereo not drawn) [Example 15, 7-[3-[[(2,3-Dihydro-6-hydroxy-1,4-benzodioxin-2-yl)methyl]methylamino]propoxy]-2H-1-benzopyran-2-one]
inhibition at 0.1 µM [1]: 23% | Dopa Accumulation (% inhib. @ 10 mg/kg, sc), tissue not indicated [2]: 9.2%

COc1cc(OC)c2c(c1)OCC(CNCCCOc1ccc3ccc(=O)oc3c1)O2 (stereo not drawn) [Example 19]
Dopa Accumulation (% inhib. @ 10 mg/kg, sc), limbic (L) [2]: 23%

O=c1ccc2ccc(OCCCNC[C@H]3COc4ccc(O)cc4O3)cc2o1 [Example 20, (S)-7-[3-[[(2,3-Dihydro-7-hydroxy-1,4-benzodioxin-2-yl)methyl]amino]propoxy]-2H-1-benzopyran-2-one]
Dopa Accumulation (% inhib. @ 10 mg/kg, sc), limbic (L) [2]: 45%

O=C1CC2(CCCC2)CC(=O)N1CCCCNCC1COc2ccccc2O1 (stereo not drawn) [MDL 72832, 8-[4-(1,4-benzodioxan-2-ylmethylamino)butyl]-8-azaspiro[4.5]decane-7,9-dione]
selectivity as ligand for 5-HT1A receptors (in words) (5-HT1A receptor; Fozard et al. 1987): selective and stereospecific

O=C1CC2(CCCC2)CC(=O)N1CCCCN1CCN(c2ncccn2)CC1 [buspirone]
affinity for the 5-HT1A serotonin receptor subtype (in words) (5-HT1A receptor; standard for anxiolytic activity): potent affinity
